# Reference: patent US11753445B2, “Therapeutic peptides” (COHBAR, INC., priority 2016, dated 2023)
# Ends that are not written are not given here. * marks the point of attachment. Biotin = O=C1N[C@H]2[C@H](CS[C@H]2CCCCC(=O)*)N1
# Key:
# 3T3-L1 Adipocytes [1] = experiment: Free fatty acid levels in cultured mouse 3T3-L1 adipocytes, isoproterenol stimulated (Example 17); assay type: cell-based; conditions: Peptide Concentration 25 μM; isoproterenol 1 nM
# Procedure: Mouse 3T3-L1 cells were seeded at a density between 1,000-20,000 cells per well on 96-well, 48-well, or 24-well plates in Pre-adipocyte Medium (Zen-Bio, Durham, N.C.) and grown to confluence at 37° C. in a humidified atmosphere of 5% CO2/95% air. Two days after confluence, cells were placed in Adipocyte Differentiation Medium (Zen-Bio, Durham, N.C.) and cultured for three additional days at 37° C. in a humidified atmosphere of 5% CO2/95% air. The culture media was then replaced with Adipocyte Maintenance Medium (Zen-Bio) and the cells were maintained for an additional 9-14 days at 37° C. in a humidified atmosphere of 5% CO2/95% air with partial medium replacement every other day. Following 12-17 days of differentiation, test peptides were added at a final concentration of 25-50 μM and incubated for 18-20 hours in Adipocyte Maintenance Medium at 37° C. in a humidified atmosphere of 5% CO2/95%. After the media incubation, media was removed and exchanged with Assay Buffer (Zen-Bio) containing isoproterenol (1 nM) (added to all samples except untreated controls) and the test peptides. Cells were incubated for a further 3 hours at 37° C. in a humidified atmosphere of 5% CO2/95%. Free fatty acid concentrations in the media were determined using a Free Fatty Acid Assay Kit (Zen-Bio) according to the manufacturer's instructions using a plate reader (540 nm).
# Absorbance values were corrected for untreated background and expressed relative to isoproterenol treated cells. Treatment with isoproterenol (1 nM) alone was used as the free fatty acid level stimulatory control. The relative standard deviation of the isoproterenol control was <10%. […] Free fatty acid levels for insulin (100 nM) treatment were <5% of the isoproterenol control value.
# Human Primary Adipocytes = experiment: Free fatty acid levels in cultured human primary adipocytes, forskolin stimulated (Example 5); assay type: cell-based; conditions: test peptides 25 μM; forskolin 1 μM
# Procedure: Human primary adipocytes were seeded at 5,000-100,000 cells per well on 96-well, 48-well, or 24-well plate in Pre-adipocyte Medium (Zen-Bio, Durham, N.C.) and grown to confluence at 37° C. in a humidified atmosphere of 5% CO2/95% air. Two days after confluence, cells were placed in Adipocyte Differentiation Medium (Zen-Bio, Durham, N.C.) and cultured for three additional days at 37° C. in a humidified atmosphere of 5% CO2/95% air. The culture media was then replaced with Adipocyte Maintenance Medium (Zen-Bio) and the cells were maintained for an additional 11-21 days at 37° C. in a humidified atmosphere of 5% CO2/95% air with partial medium replacement every other day. Following 14-24 days of differentiation, test peptides were added at a final concentration of 25 μM and incubated for 18-20 hours in Adipocyte Maintenance Medium at 37° C. in a humidified atmosphere of 5% CO2/95%. After 18-20 hours, the media was exchanged with fresh Adipocyte Maintenance Medium containing test peptides and incubated for 1 h at 37° C. in a humidified atmosphere of 5% CO2/95%. After 1 h media was exchanged with Assay Buffer (Zen-Bio) containing forskolin (1 μM) (added to all samples except untreated controls) and test peptides. Cells were incubated for a further 3 hours at 37° C. in a humidified atmosphere of 5% CO2/95%. Free fatty acid concentrations in the media were determined using a Free Fatty Acid Assay Kit (Zen-Bio) according to the manufacturer's instructions using a plate reader (540 nm). Absorbance values were corrected for untreated background and expressed relative to forskolin treated cells. Treatment with forskolin (1 μM) alone was used as the free fatty acid level stimulatory control. The relative standard deviation of the forskolin control was <20%. […] Free fatty acid levels for insulin (100 nM) treatment were <8% of the forskolin control value.
# [2] = test system: Diet Induced Obese (DIO) mice; experiment: Body weight, blood glucose and fat mass in Diet Induced Obese mice, 10 days (Example 6); assay type: in vivo, Male C57BL/6 mice; conditions: male DIO mice; 10 days twice daily intraperitoneal 15 mg/kg; N = 8; mean
# Procedure: Animals were randomized to treatment groups based on blood glucose levels and body weight. The peptides of the invention were administered to two groups of male DIG mice once or twice daily by subcutaneous or intraperitoneal injection at a dose of 15 mg/kg/dose for 10 days (N=8 animals per treatment group). An additional group of male DIG mice (n=8) received vehicle (water or saline) alone. Body weight, blood glucose levels and food intake were monitored. Body mass distribution (fat vs lean) was determined by quantitative whole body NMR prior to dosing and at the end of dosing.
# [3] = Stability in mouse plasma, peptides 100 uM (Example 14); assay type: in vitro ADME; conditions: mouse plasma 37° C., peptide 100 uM; for remaining at 0.25 h, 100 uM / remaining at 0.5 h, 100 uM / remaining at 1 h, 100 uM / remaining at 2 h, 100 uM / remaining at 3 h, 100 uM: pooled mouse plasma; for remaining at 0.25 h, 100 uM: 15 min, read-out: % Remaining at Each Time Point: 15 min; for remaining at 0.5 h, 100 uM: 30 min, read-out: % Remaining at Each Time Point: 30 min; for remaining at 1 h, 100 uM: 60 min, read-out: % Remaining at Each Time Point: 60 min; for remaining at 2 h, 100 uM: 120 min, read-out: % Remaining at Each Time Point: 120 min; for remaining at 3 h, 100 uM: 180 min, read-out: % Remaining at Each Time Point: 180 min
# Procedure: Peptides (100 uM) were incubated in pooled mouse plasma at 37° C. and samples were removed and immediately analyzed for the concentration of intact peptide by LC/MS/MS over the course of 3 hours. The percent of peptide remaining in plasma at each time point was calculated relative to the initial peak area (Table 12).
# 3T3-L1 Adipocytes [4] = experiment: Free fatty acid levels in cultured mouse 3T3-L1 adipocytes, isoproterenol stimulated (Example 2); assay type: cell-based; conditions: test peptides 25 μM; isoproterenol 1 nM
# How it was run: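 Release of free fatty acids, read at 540 nm, was stimulated with 1 nM isoproterenol for 3 h in mouse 3T3-L1 adipocytes (12–17 days of differentiation). Cells were pre-exposed to 25 μM peptide for 18–20 h plus 1 h, with peptide kept in during stimulation. Values are background-subtracted and normalised to isoproterenol alone.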
# 3T3-L1 Adipocytes [5] = experiment: Free fatty acid levels in cultured mouse 3T3-L1 adipocytes, forskolin stimulated (Example 3); assay type: cell-based; conditions: test peptides 25 μM; forskolin 1 μM
# Procedure: Mouse 3T3-L1 cells were seeded at 1,000-20,000 cells per well on 96-well, 48-well, or 24-well plates in Pre-adipocyte Medium (Zen-Bio, Durham, N.C.) and grown to confluence at 37° C. in a humidified atmosphere of 5% CO2/95% air. Two days after confluence, cells were placed in Adipocyte Differentiation Medium (Zen-Bio, Durham, N.C.) and cultured for three additional days at 37° C. in a humidified atmosphere of 5% CO2/95% air. The culture media was then replaced with Adipocyte Maintenance Medium (Zen-Bio) and the cells were maintained for an additional 9-14 days at 37° C. in a humidified atmosphere of 5% CO2/95% air with partial medium replacement every other day. Following 12-17 days of differentiation, test peptides were added at a final concentration of 25 μM and incubated for 18-20 hours in Adipocyte Maintenance Medium at 37° C. in a humidified atmosphere of 5% CO2/95%. After 18-20 hours, the media was exchanged with fresh Adipocyte Maintenance Medium containing test peptides and incubated for 1 h at 37° C. in a humidified atmosphere of 5% CO2/95%. After 1 h media was exchanged with Assay Buffer (Zen-Bio) containing forskolin (1 μM) (added to all samples except untreated controls) and test peptides. Cells were incubated for a further 3 hours at 37° C. in a humidified atmosphere of 5% CO2/95%. Free fatty acid concentrations in the media were determined using a Free Fatty Acid Assay Kit (Zen-Bio) according to the manufacturer's instructions using a plate reader (540 nm). Absorbance values were corrected for untreated background and expressed relative to forskolin treated cells. Treatment with forskolin (1 μM) alone was used as the free fatty acid level stimulatory control. The relative standard deviation of the forskolin control was <10%. […] Free fatty acid levels for insulin (100 nM) treatment were <9% of the forskolin control value.
Substance,Free Fatty Acid Levels in 3T3-L1 Adipocytes Expressed as a Percent of Isoproterenol Control: Percent of Control Value (3T3-L1 Adipocytes [1]) [%],Free Fatty Acid Levels in Human Primary Adipocytes Expressed as a Percent of Forskolin Control: Percent of Control Value (Human Primary Adipocytes) [%],Difference from Vehicle Control: Decrease from Baseline in Blood Glucose [2] [mg/dL],Difference from Vehicle Control: Decrease from Baseline in Body Weight (%) [2] [%],Difference from Vehicle Control: Decrease from Baseline in Fat Mass [2] [g],% Remaining at Each Time Point: 0 min [3] [%],"remaining at 0.25 h, 100 uM [3] [%]","remaining at 0.5 h, 100 uM [3] [%]","remaining at 1 h, 100 uM [3] [%]","remaining at 2 h, 100 uM [3] [%]","remaining at 3 h, 100 uM [3] [%]",Free Fatty Acid Levels in 3T3-L1 Adipocytes Expressed as a Percent of Isoproterenol Control: Percent of Control Value (3T3-L1 Adipocytes [4]) [%],Free Fatty Acid Levels in 3T3-L1 Adipocytes Expressed as a Percent of Forskolin Control: Percent of Control Value (3T3-L1 Adipocytes [5]) [%]
358 (Biotin-RWQEMNYIFYPR) [compound 358],60.8,,,,,,,,,,,,
H-MRWQEMGYIFYPAKLR-OH [compound 18],,101,1.52,−0.80,-0.65,100,30.8,24,19.4,9.02,4.53,,
H-MRWQEMGYIFYPRALR-OH [compound 19],,113,-14.5,−3.27,-2.34,100,18.8,18.2,8.52,1.82,0.22,66.0,
H-MRWQEMGYIFYPRN-OH [compound 203],,75.2,,,,,,,,,,52.9,54.5
H-MRWQEMGYIFYPRQ-OH [compound 204],,94.3,,,,,,,,,,38.8,57.3
H-MRWQEMGYIFYPRQLR-OH [compound 214],,89.9,,,,,,,,,,52.3,50.2
H-MRWQEMNYIFYPRALR-OH [compound 218],,75.4,,,,,,,,,,41.0,43.6
H-RWQEMGYIFYPR-OH [compound 205],,94.5,,,,,,,,,,71.5,64.5
H-RWQEMGYIFYPRALR-OH [compound 215],,102,16.4,2.31,0.67,100,71.2,37.1,42.1,15.4,6.98,27.2,37.4
H-RWQEMGYIFYPRN-OH [compound 206],,100,,,,,,,,,,53.8,50.6
H-RWQEMGYIFYPRNLR-OH [compound 216],,110,,,,,,,,,,36.3,50.1
H-RWQEMGYIFYPRQ-OH [compound 207],,108,,,,,,,,,,44.6,51.6
H-RWQEMGYIFYPRQLR-OH [compound 217],,108,-9.75,−2.54,-0.89,100,71,33.2,53.6,22.8,14.1,27.3,40.3
